According to patent US11026426B2, “Oxadiazole and phenol derivatives as antibacterial and/or herbicidal agents” (NORTHERN ILLINOIS RESEARCH FOUNDATION, priority 2017, dated 2021):
Like-named read-outs stand apart in the source and are kept apart here.

What was measured:
[1] = biological target: Lycopersicon esculentum IspE (LeIspE) (Solanum lycopersicum, UniProt P93841); test: Thermal shift assay against LeIspE; format: binding
Klebsiella pneumonia [2] = test: Antibacterial assay zone of inhibition Kp; format: cell-based
Bt IspE [3] = biological target: T1, Bt IspE (Burkholderia thailandensis, UniProt Q2T1B6); test: biochemical
T1 sequence (Q2T1B6 whole entry): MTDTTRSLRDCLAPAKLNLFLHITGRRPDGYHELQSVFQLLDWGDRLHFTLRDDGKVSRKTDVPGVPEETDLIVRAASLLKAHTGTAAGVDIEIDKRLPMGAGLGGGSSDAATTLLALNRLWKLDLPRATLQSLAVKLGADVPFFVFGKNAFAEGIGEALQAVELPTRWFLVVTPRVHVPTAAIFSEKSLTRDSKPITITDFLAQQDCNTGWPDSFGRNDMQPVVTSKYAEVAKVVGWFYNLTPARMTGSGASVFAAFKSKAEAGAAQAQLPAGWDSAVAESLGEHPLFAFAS

LeIspE = LeIspE (Solanum lycopersicum, UniProt P93841); test: University of Hamburg photometric enzymatic inhibition assay LeIspE; format: biochemical, Lycopersicon esculentum; settings: read-out: LeIspE IC50
LeIspE, sequence (P93841 89-401): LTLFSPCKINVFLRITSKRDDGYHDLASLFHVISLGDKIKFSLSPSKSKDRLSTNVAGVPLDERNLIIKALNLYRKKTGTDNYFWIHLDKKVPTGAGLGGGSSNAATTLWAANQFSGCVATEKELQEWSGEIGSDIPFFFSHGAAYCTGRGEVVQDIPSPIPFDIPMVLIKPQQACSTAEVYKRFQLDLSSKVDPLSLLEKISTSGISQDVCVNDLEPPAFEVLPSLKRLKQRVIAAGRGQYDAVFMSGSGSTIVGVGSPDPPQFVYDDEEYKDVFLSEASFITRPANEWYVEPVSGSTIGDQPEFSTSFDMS
Outline: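 Photometric coupled assay with pyruvate kinase/lactate dehydrogenase following NADH (460 μM). Mix: 100 mM Tris-HCl pH 8.0, 10 mM MgCl2, 1 mM DTT, 2.5 mM phosphoenolpyruvate, 2 mM ATP, 1 mM 4-diphosphocytidyl-2-C-methylerythritol, 1.1% DMSO, 2.4 mU IspE; incubated at 27° C.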

AtIspF = AtIspF (Arabidopsis thaliana, UniProt Q9CAK8); test: University of Hamburg photometric enzymatic inhibition assay AtIspF; format: biochemical; settings: read-out: AtIspF IC50
AtIspF, sequence (Q9CAK8 53-231): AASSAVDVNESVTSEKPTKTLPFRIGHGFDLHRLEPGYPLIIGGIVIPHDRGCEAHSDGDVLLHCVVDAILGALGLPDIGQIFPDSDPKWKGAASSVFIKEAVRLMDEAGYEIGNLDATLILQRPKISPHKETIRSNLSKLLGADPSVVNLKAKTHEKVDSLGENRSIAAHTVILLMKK
Outline: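 Coupled photometric assay (CMP kinase/pyruvate kinase/lactate dehydrogenase, NADH consumption) with 2.4 mU AtIspF and 1 mM 4-diphosphocytidyl-2C-methylerythritol 2-phosphate, 2 mM ATP, in 100 mM Tris-HCl pH 8.0, 10 mM MgCl2, 1.1% DMSO. Monitored at 27 °C.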

Micrococcus luteus [4] = test: Antibacterial preliminary screening ML; format: cell-based; settings: score 0-3; further: key: 0 represents no inhibition; 3 is comparable to commercial antibiotic control
Bt IspE [5] = biological target: T1, Bt IspE; test: ITC binding study with Bt IspE
Procedure: All ITC experiments were performed under the same conditions as described herein. Compounds were dissolved in DMSO and brought to concentration with the dialysis buffer, with a maximum DMSO concentration of 10% by volume which was matched between ligand and enzyme, and centrifuged at 10,000 RPM for 10 minutes. The dialysis buffer was used for all sample dilutions to ensure buffers matching between the titrant and titrate, thus minimizing the excess heat due to buffer mismatch. ITC experiments were performed with IspE in the cell and ligand in the syringe. The initial injection volume was 2 μL (omitted) followed by 27 10 μL injections, every 240 seconds. Samples were run at 25° C., at pH 7.4, with a stirring speed of 307 RPM. Dilution runs were performed to allow determination of background heats caused by solution mismatch and instrument noise. Dilution runs were performed with ligand (at the same concentration as in the experiment run) in the syringe titrated into the dialysis buffer in the cell. Data were fit using OriginPro 7 with the ITC add-on by the manufacturer.

Bacillus cereus [6] = test: Antibacterial preliminary screening BC; format: cell-based; settings: score 0-3; further: key: 0 represents no inhibition; 3 is comparable to commercial antibiotic control
Ec IspE = Ec IspE (Escherichia coli, UniProt P62615); test: Kinase-Glo luminescent enzymatic assay Ec IspE; format: biochemical
Ec IspE, sequence (P62615 whole entry): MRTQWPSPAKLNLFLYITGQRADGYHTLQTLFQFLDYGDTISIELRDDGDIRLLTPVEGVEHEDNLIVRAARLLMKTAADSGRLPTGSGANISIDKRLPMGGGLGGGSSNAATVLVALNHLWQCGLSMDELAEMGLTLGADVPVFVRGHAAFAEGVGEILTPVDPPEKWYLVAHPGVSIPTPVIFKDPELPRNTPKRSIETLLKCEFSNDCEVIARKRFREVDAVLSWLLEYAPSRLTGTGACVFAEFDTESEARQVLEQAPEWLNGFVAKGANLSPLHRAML

[7] = test system: Corynebacterium pseudodiphtheriae; test: Antibacterial assay zone of inhibition Cp; format: cell-based
Pseudomonas aeruginosa [8] = test: Antibacterial assay zone of inhibition Pa; format: cell-based
Klebsiella pneumonia [9] = test: Antibacterial preliminary screening KP; format: cell-based; settings: score 0-3; further: key: 0 represents no inhibition; 3 is comparable to commercial antibiotic control
Mycobacterium smegmatis [10] = test: Antibacterial assay zone of inhibition Ms; format: cell-based
Escherichia coli [11] = test: Antibacterial preliminary screening EC; format: cell-based; settings: score 0-3; further: key: 0 represents no inhibition; 3 is comparable to commercial antibiotic control
Pseudomonas aeruginosa [12] = test: Antibacterial preliminary screening PA; format: cell-based
Micrococcus luteus [13] = test: Antibacterial assay zone of inhibition Ml; format: cell-based
AtIspD = AtIspD (Arabidopsis thaliana, UniProt P69834); test: University of Hamburg photometric enzymatic inhibition assay AtIspD; format: biochemical; settings: read-out: AtIspD IC50
AtIspD, sequence (P69834 62-302): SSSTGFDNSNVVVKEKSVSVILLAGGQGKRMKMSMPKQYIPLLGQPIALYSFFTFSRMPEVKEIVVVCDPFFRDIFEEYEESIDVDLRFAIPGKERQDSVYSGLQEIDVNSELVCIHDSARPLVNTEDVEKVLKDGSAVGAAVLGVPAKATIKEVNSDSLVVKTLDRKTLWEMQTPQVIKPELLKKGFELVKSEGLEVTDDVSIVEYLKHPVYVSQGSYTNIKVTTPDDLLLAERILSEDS
Outline: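 Coupled photometric assay: 2.4 mU AtIspD with 1 mM (2R,3S)-2,3-dihydroxy-4-oxopentyl phosphate, 2.1 mM CTP, excess IspE (0.4 U), ATP, pyruvate kinase/lactate dehydrogenase and 460 μM NADH. Run in 100 mM Tris-HCl pH 8.0, 10 mM MgCl2, 1 mM DTT, 1.1% DMSO at 27 °C, monitored photometrically.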

[14] = test system: Corynebacterium pseudodiphtheriae; test: Antibacterial preliminary screening CP; format: cell-based; settings: score 0-3;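 further: 0 is no inhibition and 3 matches the commercial antibiotic control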
Escherichia coli [15] = test: Antibacterial assay zone of inhibition Ec; format: cell-based
Corynebacterium xerosis [16] = test: Antibacterial assay zone of inhibition Cx; format: cell-based
[17] = biological target: T2, Mycobacterium tuberculosis IspD (MtIspD) (Mycobacterium tuberculosis, UniProt P9WKG9); test: Thermal shift assay against MtIspD; format: binding
T2 sequence (P9WKG9 1-231): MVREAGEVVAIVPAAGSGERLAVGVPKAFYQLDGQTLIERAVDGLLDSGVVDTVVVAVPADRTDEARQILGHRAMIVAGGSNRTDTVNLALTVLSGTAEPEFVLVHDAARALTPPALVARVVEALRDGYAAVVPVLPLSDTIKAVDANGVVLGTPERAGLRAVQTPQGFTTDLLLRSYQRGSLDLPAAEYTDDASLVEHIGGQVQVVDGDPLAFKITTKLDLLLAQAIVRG

Mycobacterium smegmatis [18] = test: Antibacterial preliminary screening MS; format: cell-based; settings: score 0-3
Bacillus cereus [19] = test: Antibacterial assay zone of inhibition Bc; format: cell-based
lettuce seeds = test: Lettuce leaf assay; format: in vivo; parameters: key: 0 (no effect); 5(complete inhibition or bleaching); settings: ranking 0-5
Outline: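 Qualitative assay: compounds in volatile organic solvent applied to filter paper in a petri dish, solvent evaporated, lettuce seeds and 5 mL water added to give test concentrations. Germination, root development and leaf bleaching scored days 3 and 4, ranked 0 (no effect) to 5 (complete inhibition or bleaching).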

Corynebacterium xerosis [20] = test: Antibacterial preliminary screening CX; format: cell-based; settings: score 0-3
[21] = test system: Burkholderia thailandensis; format: cell-based
[22] = test system: Burkholderia thailandensis; format: cell-based; settings: preliminary screening, score 0-3

Lycopersicon esculentum IspE (LeIspE), sequence (P93841 89-401): as the sequence (P93841 89-401) above

## Clc1ccc(OCc2nnc(-c3nc4ccccc4s3)o2)c(Cl)c1 [HGN-333, 2-(benzo[d]thiazol-2-yl)-5-((2,4-dichlorophenoxy)methyl)-1,3,4-oxadiazole]
[1]
  LeIspE melting point change: −1.75 °C
  LeIspE melting temp: 47.75 °C
Klebsiella pneumonia [2]; 0.1 mM
  Antibacterial Kp zone of inhibition: 0 millimeters
Klebsiella pneumonia [2]; 0.5 mM
  Antibacterial Kp zone of inhibition: 0 millimeters
Klebsiella pneumonia [2]; 1 mM
  Antibacterial Kp zone of inhibition: 0 millimeters
Bt IspE [3]
  IC50: 28 µM
LeIspE
  IC50: 31 µM
AtIspF
  IC50: 291 µM
Micrococcus luteus [4]
  ML score: 0
Bt IspE [5]
  KD app (ITC, words): in the nanomolar range
  binding stoichiometry (ITC): 0.903
  ΔH° (ITC): -8.6 kcal/mol
  −TΔS (ITC): -17.8 kcal/mol
Bt IspE [5]; b178, unit not given
  entropic contribution −TΔS (ITC): −17.8
Bacillus cereus [6]
  BC score: 0
Ec IspE
  IC50: 3 µM
[7]; 0.1 mM
  Antibacterial Cp zone of inhibition: 0 millimeters
[7]; 0.5 mM
  Antibacterial Cp zone of inhibition: 0 millimeters
[7]; 1 mM
  Antibacterial Cp zone of inhibition: 0 millimeters
Pseudomonas aeruginosa [8]; 0.1 mM
  Antibacterial Pa zone of inhibition: 0 millimeters
Pseudomonas aeruginosa [8]; 0.5 mM
  Antibacterial Pa zone of inhibition: 18 millimeters
Pseudomonas aeruginosa [8]; 1 mM
  Antibacterial Pa zone of inhibition: 25 millimeters
Klebsiella pneumonia [9]
  KP score: 0
other
  melting point: 163 to 165 °C
Mycobacterium smegmatis [10]; 0.1 mM
  Antibacterial Ms zone of inhibition: 0 millimeters
Mycobacterium smegmatis [10]; 0.5 mM
  Antibacterial Ms zone of inhibition: 0 millimeters
Mycobacterium smegmatis [10]; 1 mM
  Antibacterial Ms zone of inhibition: 0 millimeters
Escherichia coli [11]
  EC score: 0
Pseudomonas aeruginosa [12]
  effectiveness against Pseudomonas aeruginosa: moderately effective
Pseudomonas aeruginosa [12]; score 0-3
  PA score: 2
Micrococcus luteus [13]; 0.1 mM
  Antibacterial Ml zone of inhibition: 0 millimeters
Micrococcus luteus [13]; 0.5 mM
  Antibacterial Ml zone of inhibition: 0 millimeters
Micrococcus luteus [13]; 1 mM
  Antibacterial Ml zone of inhibition: 0 millimeters
AtIspD
  IC50: 151 µM
[14]
  CP score: 0
Escherichia coli [15]; 0.1 mM
  Antibacterial Ec zone of inhibition: 0 millimeters
Escherichia coli [15]; 0.5 mM
  Antibacterial Ec zone of inhibition: 0 millimeters
Escherichia coli [15]; 1 mM
  Antibacterial Ec zone of inhibition: 0 millimeters
Corynebacterium xerosis [16]; 0.1 mM
  Antibacterial Cx zone of inhibition: 0 millimeters
Corynebacterium xerosis [16]; 0.5 mM
  Antibacterial Cx zone of inhibition: 0 millimeters
Corynebacterium xerosis [16]; 1 mM
  Antibacterial Cx zone of inhibition: 0 millimeters
[17]
  MtIspD melting point change: 1.3 °C
  MtIspD melting temp: 49.3 °C
Mycobacterium smegmatis [18]
  MS score: 0
Bacillus cereus [19]; 0.1 mM
  Antibacterial Bc zone of inhibition: 0 millimeters
Bacillus cereus [19]; 0.5 mM
  Antibacterial Bc zone of inhibition: 0 millimeters
Bacillus cereus [19]; 1 mM
  Antibacterial Bc zone of inhibition: 12.5 millimeters
Lettuce seeds; 0.15 mM
  Bleaching: 0
  Germination: 0
  Root Dev.: 0
Lettuce seeds; 0.3 mM
  Bleaching: 0
  Germination: 0
  Root Dev.: 0
Corynebacterium xerosis [20]
  CX score: 0
[21]; 0.1 mM
  Antibacterial Bt zone of inhibition: 0 millimeters
[21]; 0.5 mM
  Antibacterial Bt zone of inhibition: 15 millimeters
[21]; 1 mM
  Antibacterial Bt zone of inhibition: 19 millimeters
[22]
  BT score: 0
